Measured values from patent publication US20250235450A1, “COMBINATION THERAPIES COMPRISING APREMILAST AND TYK2 INHIBITORS” (Celgene Corporation, priority 2019, published 2025).
Where two headings read alike, the source gives them in different places.

Key:
[1] = tested on: anti-CD3/anti-CD28 (Th0) or anti-CD3/anti-CD28, IL-1β, IL-6 and IL-23 (Th17) stimulated whole blood; test: Ex-vivo TruCulture tube assay: cytokine production in stimulated whole blood; assay type: cell-based, human; conditions: for inhibition at 1 µM: Homo sapiens
Method: Whole blood was received through the Celgene Donor program after informed consent and donor deidentification. All volunteers were healthy and were not on any medications for at least 72 hours prior to the blood draw. Blood was collected in sodium heparin tubes. The assay was started within 2 hours of the blood draw.
An ex-vivo stimulation of healthy donor human whole blood was performed under two different stimulation conditions. Condition Th0 was a stimulation with TruCulture® tubes containing anti-CD3/anti-CD28. Condition Th17 was a stimulation with TruCulture® tubes containing anti-CD3/anti-CD28 plus IL-1β, IL-6 and IL-23. Whole blood was separated into 15 milliliter conical tubes and pre-treated with DMSO, apremilast alone, BMS-986165 alone or BMS-986165 combined with apremilast. Final concentrations were 0.2% DMSO, 1 μM for apremilast alone, 1 μM, 0.1 μM, 0.01 μM and 0.001 μM BMS-986165 alone and in combination with 1 μM apremilast. Blood was mixed well and then incubated in a 37° C./5% CO2 incubator for 1 hour.
The anti-CD3/anti-CD28 (200 ng/ml and 330 ng/ml final concentrations respectively) TruCulture® tubes were thawed on the bench top for 30 minutes and then labeled. Plungers were pressed and then broken off. TruCulture® tubes were placed in a rack standing upright such that the plunger side is pointing down in the rack and the tube-cap is pointing up. While blood was incubating with compound Human recombinant IL-6, IL-1β and IL-23 were added to all Th17 tubes in the following concentrations: 120 ng IL-6, 120 ng IL-1b and 150 ng IL-23. One ml of the pre-treated whole blood was placed in each tube, using sterile pyrogen-free pipette tips. The cap was replaced and the contents of the tube were mixed by inverting 3 times. The tubes were immediately placed in a 37° C. heat block and incubated for 42 hours (tube-cap end). After the 42 hours the tubes were removed from the heat block, tops were unscrewed and 250 μl of the supernatant was removed and transferred into three 96-well polypropylene plates. Samples were immediately frozen at −80° C. The supernatants were then thawed at room temperature and tested neat for cytokine production by Luminex Multi-Plex MagPix technology (Millipore) or IL-22 by ELISA (Abcam). The manufacturer's procedures were followed accordingly.
Data processing for the cytokine analysis was done using Milliplex Analyst (Millipore), and raw data was exported to Excel template for the cytokine analysis. Data from the template was plotted using GraphPad Prism 7.0 (GraphPad Software, Inc., La Jolla, CA) and expressed as pg/ml or % of control. Statistical analysis was also performed using One Way Anova and Dunnett's Post Test.
To evaluate the combinatory effect of apremilast and BMS-986165, data from the two independent treatments were analyzed by comparing the combinatory response against the theoretical additive response of the two agents. The expected additive effect of two agents (A and B) was calculated using the fractional product method: (fu)A,B=(fu)A×(fu)B; where fu=fraction unaffected by treatment.

[2] = tested on: LPS stimulated PBMCs; test: Viability of LPS stimulated PBMCs; assay type: cell-based, human; design: key: ↑: Induced; —: No change; ↓: Reduced

CCOc1cc([C@@H](CS(C)(=O)=O)N2C(=O)c3cccc(NC(C)=O)c3C2=O)ccc1OC [Apremilast, N-[2-[(1S)-1-(3-ethoxy-4-methoxyphenyl)-2-(methylsulfonyl)ethyl]-2,3-dihydro-1,3-dioxo-1H-isoindol-4-yl]acetamide]
inhibition at 1 µM ([1]; Th0, 1 μM apremilast, read-out: inhibition of IL-17F production): 69% | inhibition at 1 µM ([1]; Th0, 1 μM apremilast, read-out: inhibition of TNF-α levels): 90% | inhibition at 1 µM ([1]; Th17, 1 μM apremilast, read-out: inhibition of IL-17F production): 49% | inhibition at 1 µM ([1]; Th17, 1 μM apremilast, read-out: inhibition of TNF-α levels): 94% | CCL20 % of Control ([1]; Th0, 1 μM apremilast): 59.5 % of Control | GM-CSF % of Control ([1]; Th0, 1 μM apremilast): 20.3 % of Control | IFN-γ % of Control ([1]; Th0, 1 μM apremilast): 9.3 % of Control | IL-1β % of Control ([1]; Th0, 1 μM apremilast): 16.4 % of Control | IL-2 % of Control ([1]; Th0, 1 μM apremilast): 17.9 % of Control | IL-4 % of Control ([1]; Th0, 1 μM apremilast): 30.3 % of Control | IL-5 % of Control ([1]; Th0, 1 μM apremilast): 6.2 % of Control | IL-6 % of Control ([1]; Th0, 1 μM apremilast): 52.8 % of Control | IL-10 % of Control ([1]; Th0, 1 μM apremilast): 41.6 % of Control | IL-13 % of Control ([1]; Th0, 1 μM apremilast): 15.3 % of Control | IL-17A % of Control ([1]; Th0, 1 μM apremilast): 71.6 % of Control | IL-17F % of Control ([1]; Th0, 1 μM apremilast): 31.8 % of Control | IL-21 % of Control ([1]; Th0, 1 μM apremilast): 62.9 % of Control | IL-22 % of Control ([1]; Th0, 1 μM apremilast): 14.8 % of Control | IL-23 % of Control ([1]; Th0, 1 μM apremilast): 82.1 % of Control | TNF-α % of Control ([1]; Th0, 1 μM apremilast): 10.7 % of Control | inhibition of IL-17A cytokine expression ([1]; Th0, 1 μM apremilast): 28% | inhibition of IL-22 cytokine expression ([1]; Th0, 1 μM apremilast): 85% | reduction of GM-CSF cytokine expression ([1]; Th0, 1 μM apremilast): 80% | IL-17A levels ([1]; Th0, 1 μM apremilast, control 138 pg/mL): 93 pg/mL | IL-17F levels ([1]; Th0, 1 μM apremilast, control 1085 pg/mL): 368 pg/mL | TNF-α levels ([1]; Th0, 1 μM apremilast, control 1380 pg/mL): 148 pg/mL | effect on GM-CSF, statistical significance ([1]; Th0 and Th17, apremilast): significantly inhibited | CCL20 % of Control ([1]; Th17, 1 μM apremilast): 220.3 % of Control | GM-CSF % of Control ([1]; Th17, 1 μM apremilast): 33.8 % of Control | IFN-γ % of Control ([1]; Th17, 1 μM apremilast): 18.7 % of Control | IL-1β % of Control ([1]; Th17, 1 μM apremilast): 98 % of Control | IL-2 % of Control ([1]; Th17, 1 μM apremilast): 14.4 % of Control | IL-4 % of Control ([1]; Th17, 1 μM apremilast): 36.7 % of Control | IL-5 % of Control ([1]; Th17, 1 μM apremilast): 4.8 % of Control | IL-6 % of Control ([1]; Th17, 1 μM apremilast): 95.3 % of Control | IL-10 % of Control ([1]; Th17, 1 μM apremilast): 32.6 % of Control | IL-13 % of Control ([1]; Th17, 1 μM apremilast): 22.1 % of Control | IL-17A % of Control ([1]; Th17, 1 μM apremilast): 102.4 % of Control | IL-17F % of Control ([1]; Th17, 1 μM apremilast): 59.7 % of Control | IL-21 % of Control ([1]; Th17, 1 μM apremilast): 76.2 % of Control | IL-22 % of Control ([1]; Th17, 1 μM apremilast): 57.5 % of Control | IL-23 % of Control ([1]; Th17, 1 μM apremilast): 94.3 % of Control | TNF-α % of Control ([1]; Th17, 1 μM apremilast): 5.8 % of Control | effect on IL-17A cytokine expression ([1]; Th17, 1 μM apremilast): no effect | inhibition of IL-22 cytokine expression ([1]; Th17, 1 μM apremilast): 41% | reduction of GM-CSF cytokine expression ([1]; Th17, 1 μM apremilast): 66% | TNF-α levels ([1]; Th17, 1 μM apremilast, control 1436 pg/mL): 91 pg/mL | IL-17F levels ([1]; Th17, 1 μM apremilast, control 6524 pg/mL): 3643 pg/mL | effect on GM-CSF production ([1]; whole blood, Th0 and Th17): inhibited | effect on TNF-α production ([1]; whole blood, Th0 and Th17): inhibited | Viability [2]: —
